Source: patent publication US10857122B2, “Hypoestoxide, derivatives, related compounds, and agonists thereof for treatment or prevention of neurodegenerative diseases” (Immune Modulation, Inc., priority 2015, dated 2020)

Key:
α-syn-tg mice [1] = experiment: Quantitative gene expression analysis (qPCR) of pro-inflammatory cytokines; assay type: in vivo; details: neocortex of α-syn-tg mice; 5 mg/kg IP daily for four weeks
Description: (§1) Five-month-old non-tg and α-syn-tg female mice were injected intra-peritoneally (IP) with either vehicle (40% captisol) or 5 mg/kg of hypoestoxide daily for four weeks. The right hemibrains were post-fixed in phosphate-buffered 4% PFA at 4° C. for neuropathological analysis, while the left hemibrains were snap-frozen and stored at −70° C. for subsequent protein and mRNA analysis.
(§2) Total mRNA was extracted from mice frontal cortex using RNeasy Lipid mini kit (Qiagen, Germantown, Md.) and reverse transcribed using SuperScript VILO cDNA synthesis kit (Life Technologies), respectively. Quantitative real-time PCR was performed using TaqMan® Fast Advanced Master Mix (Life Technologies) according to manufacturer's instructions with gene specific primers obtained from Life Technologies, such as TNFα (Mm00443258_m1), IL6 (Mm00446190_m1), IL-1β (Mm00434228_m1), and β-actin (Mm00607939_s1). Amplification of DNA products was measured by the StepOnePlus real-time PCR system (Applied Biosystems, Carlsbad, Calif.). Relative mRNA levels were calculated according to the 2-exp (ΔΔCt) method. All ΔCT values were normalized to β-actin.
(§3) The levels of pro-inflammatory cytokines were analyzed using immunohistochemical analysis and gene expression analysis. The levels of TNFα, IL-1ß and IL6 were increased in α-syn-tg mice compared to non-tg mice. […] A positive interactive effect of HE treatment on the levels of TNFα (Finteraction (1, 16)=12.34, p=0.0029), IL-1β (Finteraction (1, 16)=11.58, p=0.0036), and IL6 (Finteraction (1, 16)=31.06, p<0.0001) was confirmed by two-way ANOVA. […] A positive interactive effect of HE treatment on the mRNA levels of TNFα (Finteraction (1, 16)=15.78, p=0.0019), IL-1β (Finteraction (1, 16)=11.65, p=0.0051), and IL6 (Finteraction (1, 16)=6.40, p=0.0264) was confirmed by two-way ANOVA.

α-syn-tg mice [2] = experiment: Neurodegeneration analysis (TH-positive striatal fibers); assay type: in vivo; details: 5 mg/kg IP daily for four weeks
Description: as §1
(§4) Blind-coded sagittal brain sections were incubated with primary antibodies at 4° C. for overnight. The next day, sections were incubated with either biotinylated- or FITC-conjugated secondary antibodies and detected with avid in D-HRP HRP (ABC elite, Vector Laboratories, Burlingame, Calif.) and with Tyramide Signal Amplification Direct system (PerkinElmer, Waltham, Mass.), respectively.
(§5) To determine the neuroinflammation, neurodegeneration, accumulation of α-synuclein, and NF-κB activation, brain sections were stained with Iba-1, GFAP, TNFα, IL-1β, IL6, human α-synuclein, NF-κB, and phosphorylated-NF-κB antibodies, respectively. Sections were imaged by Olympus BX41 microscope. All immunoreactivity levels were determined by optical density analysis using Image Quant 1.43 program (NIH) except the immunoreactivity of Iba-1. The cell numbers of Iba-1-positive cells were determined per field (230 μm×184 μm) of each animal based on cell body recognition using Image Quant 1.43 program (NIH). […]

α-synuclein [3] = experiment: Immunoblot analysis of α-synuclein in SDS-soluble and SDS-insoluble brain homogenate fractions; assay type: in vivo; details: brain homogenates of α-syn-tg mice; 5 mg/kg IP daily for four weeks
Description: as §1
(§6) Brain homogenates were prepared in the lysis buffer to separate SDS-soluble and SDS-insoluble fractions. Chemiluminescence detection and analysis were performed using Versadoc XL imaging apparatus and Quantity One (Bio-rad, Hercules, Calif.).
FIGS. 3F-3G show the results of a biochemical analysis. Brain homogenates were separated into SDS-soluble and SDS-insoluble factions, and analyzed by immunoblot analysis. The levels of α-synuclein in SDS-soluble fractions from α-syn tg mice were not affected by HE administration. […] A positive interactive effect of HE treatment on the level of SDS-insoluble α-synuclein (Finteraction (1, 16)=8.68, p=0.0095) was confirmed by two-way ANOVA.

α-synuclein mRNA = α-synuclein mRNA levels; assay type: in vivo, mice; details: model of PD
Description: as §1, §2
Intraneuronal accumulations of α-synuclein aggregates are typical pathological features of PD. […]

α-syn-tg mice [4] = experiment: Open field and round beam behavioral tests; assay type: in vivo; details: 5 mg/kg IP daily for four weeks
Description: as §1
Following treatment, the mice were assessed for gait and coordination using the open field and the round beam tests. Total activity was calculated as total beam breaks in ten minutes. The impairment of gait and balance were assessed by round beam analysis. Three consecutive trials of one minute each were run in one day. The numbers of foot slippages and distance traveled were recorded. The total errors on the beam were calculated as foot slips/distance traveled.
A positive interactive effect of HE treatment on the beam break numbers (Finteraction (1, 16)=15.61, p=0.0011) and total round beam errors (Finteraction (1, 16)=8.58, p=0.0098) was confirmed by two-way ANOVA.

α-synuclein [5] = experiment: Immunohistochemical and immunofluorescence analysis of α-synuclein accumulation in brain sections; assay type: in vivo, mice; details: 5 mg/kg IP daily for four weeks
Description: as §1, §4
(§7) To determine the neuroinflammation, neurodegeneration, accumulation of α-synuclein, and NF-κB activation, brain sections were stained with Iba-1, GFAP, TNFα, IL-1β, IL6, human α-synuclein, NF-κB, and phosphorylated-NF-κB antibodies, respectively. Sections were imaged by Olympus BX41 microscope. All immunoreactivity levels were determined by optical density analysis using Image Quant 1.43 program (NIH) except the immunoreactivity of Iba-1. The cell numbers of Iba-1-positive cells were determined per field (230 μm×184 μm) of each animal based on cell body recognition using Image Quant 1.43 program (NIH).
To determine whether the behavioral improvements observed in the α-syn-tg mice were related to alterations of α-synuclein pathology, immunohistochemical analysis was performed for α-synuclein with brain sections from non-tg and α-syn-tg mice treated with either vehicle or HE. […]
Immunofluorescence analysis of human α-synuclein in the frontal cortex of non-tg and α-syn-tg mice treated with either vehicle or hypoestoxide was performed. […] Additionally, fluorescence intensity against human α-synuclein was analyzed in frontal cortex of the brains. Immunoreactivity against human α-synuclein was not detected in the frontal cortex of non-tg mice, but it was highly detected in the frontal cortex of α-syn-tg mice. […]

α-syn-tg mice [6] = experiment: Immunohistochemical analysis of pro-inflammatory cytokines in a mouse model of PD; assay type: in vivo; details: neocortex of α-syn-tg mice; 5 mg/kg IP daily for four weeks
Description: as §1, §4, §7, §3

α-syn-tg mice [7] = experiment: Immunohistochemical analysis of brain immune cells (Iba-1 microglia, GFAP astrocytes) in a mouse model of PD; assay type: in vivo; details: 5 mg/kg IP daily for four weeks
Description: as §1, §4, §7
FIGS. 1A-1F show analysis of the numbers of brain immune cells.
A positive interactive effect of HE treatment on Iba-1 optical density (Finteraction (1, 16)=80.48, p<0.0001), numbers of microglia branches (Finteraction (1, 16)=83.25, p<0.0001), GFAP optical density (Finteraction (1, 16)=15.88, p=0.0011), and numbers of astroglial branches (Finteraction (1, 16)=4.04, p=0.0616) was confirmed by two-way ANOVA.

NF-κB [8] = experiment: Western blot analysis of NF-κB in cytosolic and nuclear fractions of cortex homogenates; assay type: in vivo, mice; details: 5 mg/kg IP daily for four weeks
Description: as §1, §6
Biochemical analysis using brain homogenates from the cortex of non-tg and α-syn-tg mice was performed. Brain homogenates were separated into cytosolic and nuclear fractions by centrifugation, and each fraction was analyzed by western blot analysis. Total levels of NF-κB were not altered by HE administration in non-tg and α-syn-tg mice. […] A positive interactive effect of HE treatment on the level of phosphorylated-NF-κB (Finteraction (1, 16)=11.55, p=0.0037) was confirmed by two-way ANOVA.

NF-κB [9] = experiment: Immunofluorescence analysis of NF-κB and phosphorylated-NF-κB in neocortex; assay type: in vivo, mice; details: 5 mg/kg IP daily for four weeks
Description: as §1, §4, §5

[10] = frontal cortex of α-syn-tg mice

C=C1C(=O)C[C@H]2C[C@@H]3O[C@@]3(C)CC[C@@H]3O[C@@]3(C)C[C@@H](OC(C)=O)[C@H]1C2(C)C [HE, hypoestoxide]
mRNA level of IL6 (α-syn-tg mice [1]): clearly decreased
mRNA level of IL-1β (α-syn-tg mice [1]): clearly decreased
mRNA level of TNFα (α-syn-tg mice [1]): clearly decreased
loss of TH-positive striatal fibers (α-syn-tg mice [2]): significantly decreased
levels of SDS-insoluble α-synuclein (α-synuclein [3]): significantly decreased
levels of α-synuclein in SDS-soluble fractions (α-synuclein [3]): not affected
levels of α-synuclein mRNA (α-synuclein mRNA): not affected
beam break numbers (open field test) (α-syn-tg mice [4]): reduced these errors to levels observed in non-tg mice
total round beam errors (α-syn-tg mice [4]): reduced these errors to levels observed in non-tg mice
immunoreactivity against C-terminus human α-synuclein (α-synuclein [5]; [10]): significantly decreased
level of human α-synuclein immunoreactivity (immunofluorescence) (α-synuclein [5]; [10]): significantly decreased
levels of α-synuclein in neurons and neuropil (immunohistochemical analysis) (α-synuclein [5]; α-syn-tg mice, frontal cortex, hippocampus, striatum): significantly decreased
level of IL6 (immunohistochemical analysis) (α-syn-tg mice [6]): significantly reduced
level of IL-1β (immunohistochemical analysis) (α-syn-tg mice [6]): significantly reduced
level of TNFα (immunohistochemical analysis) (α-syn-tg mice [6]): significantly reduced
levels of astrogliosis (GFAP) (α-syn-tg mice [7]; neocortex of α-syn-tg mice): significantly decreased
numbers of microglial cells (Iba-1-positive) (α-syn-tg mice [7]; neocortex of α-syn-tg mice): significantly decreased
numbers of branches per glial cell (α-syn-tg mice [7]; α-syn-tg mice): decreased
total levels of NF-κB (western blot) (NF-κB [8]; cortex homogenates of non-tg and α-syn-tg mice): not altered
level of phosphorylated NF-κB (western blot) (NF-κB [8]; cortex homogenates of α-syn-tg mice, nuclear fractions): significantly reduced
total levels of NF-κB (immunofluorescence) (NF-κB [9]; neocortex of non-tg or α-syn-tg mice): not changed
level of phosphorylated-NF-κB (immunofluorescence) (NF-κB [9]; neocortex of α-syn-tg mice): significantly decreased
